pIC50: −log10 of the molar value.
These compounds were tested against SIK2 (Homo sapiens, UniProt Q9H0K1) (assay: SIK2 Enzymatic Assay High Version 2 (High ATP)). Conditions: not given.
Format: biochemical
How it was run: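 At room temperature, enzyme (6 nM, 2× final) was preincubated with compound for 30 min, then 6 mM ATP and 400 μM HDAC5tide (both 2× final) were added for 2 h. ADP formed was measured by ADP-Glo Max (2 h reagent, 1 h detection) using luminescence.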

Chain of SIK2 (Q9H0K1 whole entry, species assumed): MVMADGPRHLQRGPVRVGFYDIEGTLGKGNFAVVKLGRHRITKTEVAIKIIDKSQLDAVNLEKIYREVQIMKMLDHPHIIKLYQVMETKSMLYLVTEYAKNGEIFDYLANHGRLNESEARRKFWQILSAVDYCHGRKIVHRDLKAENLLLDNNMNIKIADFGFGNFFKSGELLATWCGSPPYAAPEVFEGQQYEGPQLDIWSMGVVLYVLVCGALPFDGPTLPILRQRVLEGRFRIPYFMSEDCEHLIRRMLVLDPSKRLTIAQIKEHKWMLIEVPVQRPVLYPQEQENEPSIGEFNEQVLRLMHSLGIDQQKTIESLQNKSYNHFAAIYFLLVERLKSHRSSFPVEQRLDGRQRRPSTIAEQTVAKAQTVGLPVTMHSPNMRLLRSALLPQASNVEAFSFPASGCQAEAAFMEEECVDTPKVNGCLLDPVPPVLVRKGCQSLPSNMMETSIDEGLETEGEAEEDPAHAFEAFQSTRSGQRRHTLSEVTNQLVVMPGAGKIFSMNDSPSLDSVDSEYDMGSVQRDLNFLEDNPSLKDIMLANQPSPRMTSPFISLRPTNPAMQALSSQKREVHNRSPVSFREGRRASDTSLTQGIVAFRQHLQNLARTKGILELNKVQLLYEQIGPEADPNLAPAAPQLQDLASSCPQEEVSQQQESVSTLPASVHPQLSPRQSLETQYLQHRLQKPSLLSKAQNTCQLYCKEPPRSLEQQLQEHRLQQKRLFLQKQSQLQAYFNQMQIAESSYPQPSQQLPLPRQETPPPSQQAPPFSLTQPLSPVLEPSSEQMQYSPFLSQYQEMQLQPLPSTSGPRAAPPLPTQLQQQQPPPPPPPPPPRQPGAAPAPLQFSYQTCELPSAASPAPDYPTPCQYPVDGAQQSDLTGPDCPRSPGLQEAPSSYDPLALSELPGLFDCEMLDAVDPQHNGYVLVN

Row | Structure (SMILES) | pIC50
1 | Cc1cc(-c2ccn3nc(Nc4cn(C)nc4F)cc3c2)c(O[C@H]2C[C@H]3COC[C@@H](C2)N3)cn1 [Example 398, N-(3-fluoro-1-methyl-pyrazol-4-yl)-5-[2-methyl-5-[[(1S,5R,7s)-3-oxa-9-azabicyclo[3.3.1]nonan-7-yl]oxy]-4-pyridyl]pyrazolo[1,5-a]pyridin-2-amine] | > 9.07
2 | Cc1cc(-c2ccn3nc(Nc4ccn(C)n4)cc3c2)c(O[C@H]2C[C@H]3COC[C@@H](C2)N3C)cn1 [Example 423, 5-[2-methyl-5-[[(1S,5R,7s)-9-methyl-3-oxa-9-azabicyclo[3.3.1]nonan-7-yl]oxy]-4-pyridyl]-N-(1-methylpyrazol-3-yl)pyrazolo[1,5-a]pyridin-2-amine] | 7.99
3 | COc1cc(Nc2cc3cc(-c4cc(C)ncc4O[C@H]4C[C@H]5COC[C@@H](C4)N5)ccn3n2)cc(OC)c1C(=O)NC(C)C [Example 340, N-isopropyl-2,6-dimethoxy-4-[[5-[2-methyl-5-[[(1S,5R)-3-oxa-9-azabicyclo[3.3.1]nonan-7-yl]oxy]-4-pyridyl]pyrazolo[1,5-a]pyridin-2-yl]amino]benzamide] | > 9.07
4 | CNC(=O)c1ccnc(Nc2cc3cc(-c4cc(C)ncc4O[C@H]4C[C@H]5COC[C@@H](C4)N5S(=O)(=O)C4CC4)ccn3n2)c1 [Example 635, 2-((5-(5-(((1R,5S,7s)-9-(cyclopropylsulfonyl)-3-oxa-9-azabicyclo[3.3.1]nonan-7-yl)oxy)-2-methylpyridin-4-yl)pyrazolo[1,5-a]pyridin-2-yl)amino)-N-methylisonicotinamide] | 8.71
5 | Cc1cc(-c2ccn3nc(Nc4ccc(C(=O)NCC5CCOCC5)cn4)cc3c2)c(O[C@H]2C[C@H]3COC[C@@H](C2)N3)cn1 [Example 373, 6-[[5-[2-methyl-5-[[(1R,5S,7s)-3-oxa-9-azabicyclo[3.3.1]nonan-7-yl]oxy]-4-pyridyl]pyrazolo[1,5-a]pyridin-2-yl]amino]-N-(tetrahydropyran-4-ylmethyl)pyridine-3-carboxamide] | > 9.07
6 | Cc1cc(-c2ccn3nc(Nc4cc(C(F)(F)F)ccn4)cc3c2)c(O[C@H]2C[C@H]3COC[C@@H](C2)N3)cn1 [Example 378, 5-[2-methyl-5-[[(1S,5R,7s)-3-oxa-9-azabicyclo[3.3.1]nonan-7-yl]oxy]-4-pyridyl]-N-[4-(trifluoromethyl)-2-pyridyl]pyrazolo[1,5-a]pyridin-2-amine] | > 9.07

Same assay, conditions: enzyme 6 nM, 6 mM ATP and 400 μM HDAC5tide (each 2× final concentration); 30 minutes pre-incubation, 2 hours; ADP-Glo Max luminescence; read-out: SIK2 high ATP IC50 (μM) (Test Example 2)

Row | Structure (SMILES) | IC50
7 | Cc1cc(-c2ccn3nc(NC(=O)C4CC4)cc3c2)c(OCC2(c3ccccc3)CNC2)cn1 [Example 470, N-[5-[2-methyl-5-[(3-phenylazetidin-3-yl)methoxy]-4-pyridyl]pyrazolo[1,5-a]pyridin-2-yl]cyclopropanecarboxamide] | 0.00511 µM
8 | COc1cc(Nc2cc3cc(-c4cc(C)ncc4OCC(C)(C)O)ccn3n2)cc(OC)c1C(=O)NC1CC1 [Example 626, N-cyclopropyl-4-[[5-[5-(2-hydroxy-2-methyl-propoxy)-2-methyl-4-pyridyl]pyrazolo[1,5-a]pyridin-2-yl]amino]-2,6-dimethoxy-benzamide] | 0.0862 µM
9 | Cc1cc(-c2ccn3nc(Nc4ccn(C(C)C)n4)cc3c2)c(OC[C@@H]2CNCCO2)cn1 [Example 135, N-(1-isopropylpyrazol-3-yl)-5-[2-methyl-5-[[(2S)-morpholin-2-yl]methoxy]-4-pyridyl]pyrazolo[1,5-a]pyridin-2-amine] | 0.00986 µM
10 | Cc1cc(-c2ccn3nc(Nc4cnccn4)cc3c2)c(OC[C@@H]2CNCCO2)cn1 [Example 431, 5-[2-methyl-5-[[(2S)-morpholin-2-yl]methoxy]-4-pyridyl]-N-pyrazin-2-yl-pyrazolo[1,5-a]pyridin-2-amine] | 0.00194 µM
11 | Cc1cc(-c2ccn3nc(NC(=O)C4CC4)cc3c2)c(OC[C@@H](N)C(F)(F)F)cn1 [Example 570, N-[5-[5-[(2R)-2-amino-3,3,3-trifluoro-propoxy]-2-methyl-4-pyridyl]pyrazolo[1,5-a]pyridin-2-yl]cyclopropanecarboxamide] | 0.0943 µM
12 | Cc1cc(-c2ccn3nc(Nc4cc(C)c(C)nn4)cc3c2)c(OCC(C)(C)O)cn1 [Example 201, 1-[[4-[2-[(5,6-dimethylpyridazin-3-yl)amino]pyrazolo[1,5-a]pyridin-5-yl]-6-methyl-3-pyridyl]oxy]-2-methyl-propan-2-ol] | 0.0641 µM
13 | CC(C)(C#N)COc1cnc(OC(F)F)cc1-c1ccn2nc(Nc3cc4n(n3)CCNC4)cc2c1 [Example 706, 3-[[6-(difluoromethoxy)-4-[2-(4,5,6,7-tetrahydropyrazolo[1,5-a]pyrazin-2-ylamino)pyrazolo[1,5-a]pyridin-5-yl]-3-pyridyl]oxy]-2,2-dimethyl-propanenitrile] | 0.0755 µM
14 | Cc1cc(-c2ccn3nc(NC(=O)C4CC4)cc3c2)c(O[C@H](CN)c2ccccc2)cn1 [Example 466, N-[5-[5-[(1S)-2-amino-1-phenyl-ethoxy]-2-methyl-4-pyridyl]pyrazolo[1,5-a]pyridin-2-yl]cyclopropanecarboxamide] | 0.00115 µM
15 | Cc1cc(Nc2cc3cc(-c4cc(OC(F)F)ncc4OCC(C)(C)C#N)ccn3n2)nc(C)n1 [Example 329, 3-[[6-(difluoromethoxy)-4-[2-[(2,6-dimethylpyrimidin-4-yl)amino]pyrazolo[1,5-a]pyridin-5-yl]-3-pyridyl]oxy]-2,2-dimethyl-propanenitrile] | 0.00358 µM
16 | CNc1nc(C)cc(Nc2cc3cc(-c4cc(C)ncc4O[C@H]4CC[C@H](O)CC4)ccn3n2)n1 [Example 227, (1r,4r)-4-((6-methyl-4-(2-((6-methyl-2-(methylamino)pyrimidin-4-yl)amino)pyrazolo[1,5-a]pyridin-5-yl)pyridin-3-yl)oxy)cyclohexan-1-ol] | < 0.000847 µM
17 | Cc1cc(Nc2cc3cc(-c4cc(O[C@H](C)C#N)ncc4O[C@H]4CC[C@H](O)CC4)ccn3n2)nc(C)n1 (relative stereo) [Example 721, (*R)-2-[[4-[2-[(2,6-dimethylpyrimidin-4-yl)amino]pyrazolo[1,5-a]pyridin-5-yl]-5-(4-hydroxycyclohexoxy)-2-pyridyl]oxy]propanenitrile] | 0.0261 µM
18 | O=C(Nc1cc2cc(-c3cc(OC(F)F)ncc3O[C@H]3CC[C@H](O)CC3)ccn2n1)C1CC1 [Example 723, N-[5-[2-(difluoromethoxy)-5-(4-hydroxycyclohexoxy)-4-pyridyl]pyrazolo[1,5-a]pyridin-2-yl]cyclopropanecarboxamide] | 0.00163 µM
19 | Cc1cc(-c2ccn3nc(NC(=O)C4CC4)cc3c2)c(OC[C@@]2(C#N)CCN(C)C2)cn1 (single isomer, unassigned) [Example 212, (*S)—N-[5-[5-[(3-cyano-1-methyl-pyrrolidin-3-yl)methoxy]-2-methyl-4-pyridyl]pyrazolo[1,5-a]pyridin-2-yl]cyclopropanecarboxamide] | 0.0472 µM
20 | Cc1cnc(Nc2cc3cc(-c4cc(C)ncc4OC[C@]45C[C@H](CO4)N(C)C5)ccn3n2)cn1 [Example 236, 5-[2-methyl-5-[[(1R,4R)-2-methyl-5-oxa-2-azabicyclo[2.2.1]heptan-4-yl]methoxy]-4-pyridyl]-N-(5-methylpyrazin-2-yl)pyrazolo[1,5-a]pyridin-2-amine] | 0.0172 µM

Source: patent US20240158392A1 (Janssen Biotech, Inc., priority 2021, published 2024)
